Measurements from patent US8101550B2, “Anthranilic acid diamide derivative with hetero-aromatic and hetero-cyclic substituents” (Bayer Cropscience AG, priority 2006, dated 2012).

assay: log P determination by HPLC on reverse-phase column (EEC Directive 79/831 Annex V.A8); type: physicochemical; details: not given
Experimental: The log P values stated in the foregoing tables and preparation examples are determined in accordance with EEC Directive 79/831 Annex V.A8 by means of HPLC (High Performance Liquid Chromatography) on a reverse-phase column (C 18). Temperature: 43° C.
The determination by LC-MS in the acidic range takes place at a pH of 2.7 using 0.1% aqueous formic acid and acetonitrile (containing 0.1% formic acid) as eluents; linear gradient from 10% acetonitrile to 95% acetonitrile.
Calibration is with unbranched alkan-2-ones (having 3 to 16 carbon atoms) of known log P value (log P values determined from the retention times by linear interpolation between two successive alkanones).

SMILES	logP
Cc1cc(F)cc(C(=O)NC(C)C)c1NC(=O)c1cc(Cn2ccc(C(F)(F)F)n2)nn1-c1ncccc1Cl [I-1-226]	3.00
Cc1cc(C#N)cc(C(=O)NCC#N)c1NC(=O)c1cc(Cn2nc(C(F)(F)F)cc2C(F)(F)F)nn1-c1ncccc1Cl [I-1-190]	3.28
Cc1cc(I)cc(C(=O)NC(C)(C)C)c1NC(=O)c1cc(Cn2nc(C(F)(F)F)nc2C(F)(F)F)nn1-c1ncccc1Cl [I-1-285]	4.23
NC(=O)c1cc(Cl)cc(Cl)c1NC(=O)c1cc(Cc2cncnc2)nn1-c1ncccc1Cl [I-1-319]	2.02
CSc1ncn(Cc2cc(C(=O)Nc3c(C)cc(Cl)cc3C(=O)NC(C)C)n(-c3ncccc3Cl)n2)n1 [I-1-262]	2.31
NC(=O)c1cc(Cl)cc(Cl)c1NC(=O)c1cc(Cn2cc(Cl)c(C(F)(F)C(F)(F)F)n2)nn1-c1ncccc1Cl [I-1-307]	2.95
Cc1cc(C#N)cc(C(N)=O)c1NC(=O)c1cc(Cn2cnc(C(F)(F)C(F)(F)F)n2)nn1-c1ncccc1Cl [I-1-350]	1.75
CNC(=O)c1cc(F)cc(C)c1NC(=O)c1cc(Cn2cc(Cl)c(C(F)(F)C(F)(F)F)n2)nn1-c1ncccc1Cl [I-1-223]	3.47
Cc1cc(I)cc(C(=O)NC2CC2)c1NC(=O)c1cc(Cn2cc(C(F)(F)C(F)(F)F)c(C(F)(F)C(F)(F)F)n2)nn1-c1ncccc1Cl [I-1-275]	4.71
CC(C)NC(=O)c1cc(Cl)cc(Cl)c1NC(=O)c1cc(Cn2nc(C(F)F)c([N+](=O)[O-])c2C(F)F)nn1-c1ncccc1Cl [I-1-259]	3.27
Cc1cc(F)cc(C(=O)NC2C3CCCCC32)c1NC(=O)c1cc(Cn2cc(Cl)c(C(F)(F)C(F)(F)F)n2)nn1-c1ncccc1Cl (centres unmarked) [I-1-199]	4.55
CNC(=O)c1cc(Cl)cc(C)c1NC(=O)c1cc(Cn2nc(C)c(Br)c2C)nn1-c1ncccc1Cl [I-1-270]	2.95
CNC(=O)c1cc(Cl)cc(Cl)c1NC(=O)c1cc(Cc2cccnc2)nn1-c1ncccc1Cl [I-1-316]	1.03
Cc1cc(I)cc(C(=O)NC(C)C)c1NC(=O)c1cc(Cn2ccc(C(F)(F)F)n2)nn1-c1ncccc1Cl [I-1-248]	3.51
Cc1cc(I)cc(C(=O)NC2CC2)c1NC(=O)c1cc(Cn2cc(Cl)c(C(F)(F)C(F)(F)F)n2)nn1-c1ncccc1Cl [I-1-276]	4.15
Cc1cc(F)cc(C(=O)NC(C)CS(C)(=O)=O)c1NC(=O)c1cc(Cn2cc(Cl)c(C(F)(F)C(F)(F)F)n2)nn1-c1ncccc1Cl (centres unmarked) [I-1-204]	3.34
Cc1cc(I)cc(C(=O)NCC#N)c1NC(=O)c1cc(Cn2nc(C(F)(F)F)cc2C(F)(F)F)nn1-c1ncccc1Cl [I-1-241]	3.73
Cc1cc(F)cc(C(=O)NCc2ccco2)c1NC(=O)c1cc(Cn2cc(Cl)c(C(F)(F)C(F)(F)F)n2)nn1-c1ncccc1Cl [I-1-196]	3.90
Cc1cc(I)cc(C(=O)NC(C)(C)C)c1NC(=O)c1cc(Cn2cc(Cl)c(C(F)(F)C(F)(F)F)n2)nn1-c1ncccc1Cl [I-1-289]	4.63
CNC(=O)c1cc(Cl)cc(Cl)c1NC(=O)c1cc(Cn2ccc(C(F)(F)F)n2)nn1-c1ncccc1Cl [I-1-312]	2.37
N#CCNC(=O)c1cc(Cl)cc(Cl)c1NC(=O)c1cc(Cn2cnc(C(F)(F)C(F)(F)F)n2)nn1-c1ncccc1Cl [I-1-349]	2.19
NC(=O)c1cc(Cl)cc(Cl)c1NC(=O)c1cc(Cn2nc(C(F)(F)F)cc2C(F)(F)F)nn1-c1ncccc1Cl [I-1-302]	2.80

same assay, conditions: HPLC on reverse-phase column

SMILES	logP
Cc1cc(Cl)cc(C(=O)NCC#N)c1NC(=O)c1cc(Cn2nnc(-c3ccc(C(F)(F)F)cc3)n2)nn1-c1ncccc1Cl [I-1-107]	3.65
Cc1cc(Cl)cc(C(=O)N[C@@H](C)CS(C)(=O)=O)c1NC(=O)c1cc(Cn2cc(Br)c(C(F)(F)F)n2)nn1-c1ncccc1Cl [I-1-141]	3.26
Cc1cc(Cl)cc(C(=O)NC(C)C)c1NC(=O)c1cc(Cn2cc(I)c(I)n2)nn1-c1ncccc1Cl [I-1-111]	3.58
Cc1cc(Cl)cc(C(=O)NC(C)(C)C[S+](C)[O-])c1NC(=O)c1cc(Cn2cc(Br)c(C(F)(F)F)n2)nn1-c1ncccc1Cl (centres unmarked) [I-1-128]	3.25
CNC(=O)c1cc(Cl)cc(C)c1NC(=O)c1cc(Cn2cc(I)cn2)nn1-c1ncccc1Cl [I-1-45]	2.67
Cc1cc(Br)cc(C(=O)NC2CC2)c1NC(=O)c1cc(Cn2ccc(C(F)(F)F)n2)nn1-c1ncccc1Cl [I-1-82]	3.18
CNC(=O)c1cc(Cl)cc(C)c1NC(=O)c1cc(Cn2cc(C(F)(F)C(F)(F)F)cn2)nn1-c1ncccc1Cl [I-1-64]	3.21
Cc1cc(Cl)cc(C(N)=O)c1NC(=O)c1cc(Cn2nc(C(F)(F)F)nc2C(F)(F)F)nn1-c1ncccc1Cl [I-1-50]	3.88
Cc1cc(Cl)cc(C(=O)NC(C)C)c1NC(=O)c1cc(Cn2nnn(-c3cc(C(F)(F)F)cc(C(F)(F)F)c3)c2=O)nn1-c1ncccc1Cl [I-1-91]	4.51
Cc1cc(Br)cc(C(=O)NC(C)(C)C[S+](C)[O-])c1NC(=O)c1cc(Cn2nc(C(F)(F)F)nc2C(F)(F)F)nn1-c1ncccc1Cl (centres unmarked) [I-1-143]	3.20
CNC(=O)c1cc(Cl)cc(C)c1NC(=O)c1cc(Cn2ccc(Cl)n2)nn1-c1ncccc1Cl [I-1-102]	2.51
Cc1cc(Br)cc(C(=O)NC2CC2)c1NC(=O)c1cc(Cn2cc(Cl)c(C(F)(F)C(F)(F)F)n2)nn1-c1ncccc1Cl [I-1-72]	4.14
CSCC(C)NC(=O)c1cc(Br)cc(C)c1NC(=O)c1cc(Cn2cc(Br)c(C(F)(F)F)n2)nn1-c1ncccc1Cl (centres unmarked) [I-1-99]	4.10
CNC(=O)c1cc(Cl)cc(C)c1NC(=O)c1cc(Cn2nc(C(F)(F)F)n(-c3ccccc3)c2=O)nn1-c1ncccc1Cl [I-1-118]	3.10
Cc1cc(Cl)cc(C(N)=O)c1NC(=O)c1cc(Cn2nnc(-c3cc(C(F)(F)F)cc(C(F)(F)F)c3)n2)nn1-c1ncccc1Cl [I-1-114]	4.03
Cc1cc(Cl)cc(C(=O)NC(C)C)c1NC(=O)c1cc(Cn2cc(C(F)(F)C(F)(F)F)cn2)nn1-c1ncccc1Cl [I-1-65]	3.67
CNC(=O)c1cc(Cl)cc(C)c1NC(=O)c1cc(Cn2cnc(C(F)(F)F)c2)nn1-c1ncccc1Cl [I-1-132]	2.39
CNC(=O)c1cc(Br)cc(C)c1NC(=O)c1cc(Cn2nc(C(F)(F)F)cc2C(F)(F)F)nn1-c1ncccc1Cl [I-1-58]	3.76
Cc1cccc(C(=O)NC(C)C[S+](C)[O-])c1NC(=O)c1cc(Cn2nc(C(F)(F)F)nc2C(F)(F)F)nn1-c1ncccc1Cl (centres unmarked) [I-1-92]	2.65
Cc1cc(Cl)cc(C(=O)NC(C)C)c1NC(=O)c1cc(Cn2nnn(-c3ccc(C(F)(F)F)cc3)c2=O)nn1-c1ncccc1Cl [I-1-89]	3.96
Cc1cc(Cl)cc(C(=O)NC(C)C)c1NC(=O)c1cc(Cn2nc(C(F)(F)F)n(C3CC3)c2=O)nn1-c1ncccc1Cl [I-1-126]	3.18
CSC[C@H](C)NC(=O)c1cc(Cl)cc(C)c1NC(=O)c1cc(Cn2nc(C(F)(F)F)nc2C(F)(F)F)nn1-c1ncccc1Cl [I-1-75]	4.04
Cc1cc(Cl)cc(C(=O)NCC#N)c1NC(=O)c1cc(Cn2nc(C(F)(F)F)nc2C(F)(F)F)nn1-c1ncccc1Cl [I-1-55]	3.40
Cc1cc(Cl)cc(C(=O)N[C@@H](C)C[S+](C)[O-])c1NC(=O)c1cc(Cn2cc(Br)c(C(F)(F)F)n2)nn1-c1ncccc1Cl (some centres unmarked) [I-1-138]	2.91
CNC(=O)c1cc(Br)cc(C)c1NC(=O)c1cc(Cn2ccc(C(F)(F)F)n2)nn1-c1ncccc1Cl [I-1-80]	2.99
CNC(=O)OC[C@H](C)NC(=O)c1cc(Cl)cc(C)c1NC(=O)c1cc(Cn2nc(C(F)(F)F)nc2C(F)(F)F)nn1-c1ncccc1Cl [I-1-78]	3.36
Cc1cc(Cl)cc(C(=O)NC(C)C)c1NC(=O)c1cc(Cn2nc(C(F)(F)F)n(-c3ccccc3)c2=O)nn1-c1ncccc1Cl [I-1-119]	3.54
Cc1cc(Br)cc(C(=O)NCC#N)c1NC(=O)c1cc(Cn2cc(Br)c(C(F)(F)F)n2)nn1-c1ncccc1Cl [I-1-97]	3.45
Cc1cc(Br)cc(C(=O)NC(C)C)c1NC(=O)c1cc(Cn2ccc(C(F)(F)F)n2)nn1-c1ncccc1Cl [I-1-81]	3.46

same assay, conditions: HPLC, reverse-phase column (C 18), 43° C., acidic range pH 2.7

logP	SMILES
3.85	CC(C)NC(=O)c1cc(Cl)cc(Cl)c1NC(=O)c1cc(Cn2nc(C(F)(F)F)nc2C(F)(F)F)nn1C(C)C [I-2-2]
4.75	Cc1cc(Br)cc(C(=O)NC(C)C)c1NC(=O)c1cc(Cn2nc(C(F)(F)F)cc2C(F)(F)F)nn1-c1ncc(C(F)(F)F)cc1Cl [I-2-21]
4.98	Cc1cc(I)cc(C(=O)NC(C)C)c1NC(=O)c1cc(Cn2nc(C(F)(F)F)cc2C(F)(F)F)nn1-c1ncc(C(F)(F)F)cc1Cl [I-2-9]
4.11	Cc1cc(F)cc(C(=O)NC2CC2)c1NC(=O)c1cc(Cn2nc(C(F)(F)F)cc2C(F)(F)F)nn1-c1ncc(C(F)(F)F)cc1Cl [I-2-19]

SMILES	logP
Cc1cc(Cl)cc(C(N)=O)c1NC(=O)c1cc(Cn2nc(C(F)(F)F)cc2C(F)(F)F)nn1-c1ncc(C(F)(F)F)cc1Cl [I-2-17]	4.09

same assay, conditions: reverse-phase C18 HPLC column; HPLC, reverse-phase column (C 18), 43° C., acidic range pH 2.7; read-out: logP

chromatographic logP	SMILES
1.97	COC(=O)c1cc(C(=O)OC)n(-c2ncccc2Cl)n1 [Example 7, Dimethyl 1-(3-chloropyridin-2-yl)-1H-pyrazole-3,5-dicarboxylate]
1.55	COC(=O)c1cc(COS(C)(=O)=O)nn1-c1ncccc1Cl [Example 5, Methyl 2-(3-chloropyridin-2-yl)-5-methanesulphonyloxymethyl-2H-pyrazole-3-carboxylate]
3.71	COC(=O)c1cc(Cn2nc(C(F)(F)F)cc2C(F)(F)F)nn1-c1ncccc1Cl [Example 4, Methyl 5-(3,5-bistrifluoromethylpyrazol-1-ylmethyl)-2-(3-chloropyridin-2-yl)-2H-pyrazole-3-carboxylate]
